# Reference: patent US20070021359A1, “Addition salts of azithromycin and citric acid and process for preparing them” (priority 2003, published 2007)
# Columns and labels:
# [1] = cited from earlier work
# [2] = cited from earlier work; remark: listed apart in the source
# [3] = solubility in water / aqueous solutions; type: physicochemical; conditions: aqueous solution, ambient temperature
# Excerpt: The azithromycin citrate of the invention provides aqueous solutions up to 65% (w/w) at ambient temperature, with a pH between 6.8 and 7.5. The new addition salts of azithromycin and citric acid of the invention are particularly useful in the preparation of aqueous or water-alcohol solutions of azitromycin containing up to 65% of the salt, providing a pH between 4 and 8, stable and not suffering from chemical degradation of azithromycin.
Molecule,stability in aqueous acid medium [1],solubility in water [2],concentration of aqueous solutions provided [3]
"CC[C@H]1OC(=O)[C@H](C)[C@@H](O[C@H]2C[C@@](C)(OC)[C@@H](O)[C@H](C)O2)[C@H](C)[C@@H](O[C@@H]2O[C@H](C)C[C@H](N(C)C)[C@H]2O)[C@](C)(O)C[C@@H](C)CN(C)[C@H](C)[C@@H](O)[C@]1(C)O [azithromycin, 9-deoxo-9a-aza-9a-methyl-9a-homoerythromycin A]",not stable,very insoluble,–
azithromycin citrate,–,–,up to 65 % (w/w)
